# In patent publication US10385085B2, “Crystal forms of sialic acid or salt or solvate thereof” (Ultragenyx Pharmaceutical Inc., priority 2015, dated 2019):
# Values joined by “and” are separate entries in the source; they are usually repeats but may differ in a detail not shown here. Equal entries are not always repeated.
# What was measured:
# Assay type in all cases: physicochemical
# [1] = 7 day stress stability, physical form by XRPD
# Procedure: XRPD analysis was carried out on a Panalytical X′pert Pro, scanning the samples between 3 and 35° […]. The material was gently ground and loaded onto a multi well plate with Kapton or mylar polymer film to support the sample. The multi well plate was then loaded into a Panalytical diffractometer running in transmission mode and analysed, using the following experimental conditions.
# (§1) The selected Forms (5, 3 and 2) were fully characterized by PLM, XRPD, ^1H NMR and IR spectroscopy, DSC, TG/DTA, GVS (with post-GVS XRPD), Karl Fischer titration for water content and HPLC analysis for purity. All of these forms with the addition of Form 1 were also placed under a stress-stability test, at three different conditions for one week (ambient conditions, 40° C. and 75% relative humidity, 80° C.). In addition to this, an approximate solubility test was conducted on the different solid forms using a solvent addition method.
# (§2) All four Forms (1, 2, 3 and 5) were placed under 7 day stress stability testing. This was carried out by placing the four forms under three different conditions for one week. Their physical stability was then analyzed by comparing the diffractograms and the chemical stability was checked by HPLC.
# [2] = Gravimetric Vapour Sorption (GVS) with post-GVS XRPD; conditions: for Polymorphic form after GVS (XRPD): material reclaimed after GVS run
# Procedure: Approximately 10-20 mg of sample was placed into a mesh vapour sorption balance pan and loaded into an IGASorp Moisture Sorption Analyser balance by Hiden Analytical. The sample was subjected to a ramping profile from 40-90% relative humidity (RH) at 10% increments, maintaining the sample at each step until a stable weight had been achieved (98% step completion). After completion of the sorption cycle, the sample was dried using the same procedure to 0% RH, and finally taken back to the starting point of 40% RH. The weight change during the sorption/desorption cycles were plotted, allowing for the hygroscopic nature of the sample to be determined.
# [3] = 7 day stress stability, chemical stability by HPLC; conditions: for Chemical stability: 1 week stress test, conditions studied; for Sialic acid Area % (HPLC): two injections
# Procedure: The chemical purity was measured on an Agilent HP1100 HPLC system fitted with an Agilent variable wavelength UV detector. Samples were prepared by dissolving in diluent at a concentration of 1 mg/mL before being analysed under the following HPLC conditions:
# as §1, §2
# [4] = Thermogravimetric/Differential Thermal Analysis (TG/DTA)
# Procedure: Approximately, 10 mg of material was weighed into an open aluminium pan and loaded into a simultaneous thermogravimetric/differential thermal analyser (TG/DTA) and held at room temperature. The sample was then heated at a rate of 10° C./min from 25° C. to 300° C. during which time the change in sample weight was recorded along with any differential thermal events (DTA). Nitrogen was used as the purge gas, at a flow rate of 300 cm^3/min.
# [5] = Differential Scanning Calorimetry (DSC)
# Procedure: Approximately, 5 mg of material was weighed into an aluminium DSC pan and sealed non-hermetically with a pierced aluminium lid. The sample pan was then loaded into a Seiko DSC6200 (equipped with a cooler) cooled and held at 25° C. Once a stable heat-flow response was obtained, the sample and reference were heated to 210° C. at a scan rate of 10° C./min and the resulting heat flow response monitored. Nitrogen was used as the purge gas, at a flow rate of 50 cm^3/min.
# HPLC-UV chemical purity = conditions: summary Table 13
# Procedure: The chemical purity was measured on an Agilent HP1100 HPLC system fitted with an Agilent variable wavelength UV detector. Samples were prepared by dissolving in diluent at a concentration of 1 mg/mL before being analysed under the following HPLC conditions: […]
# [6] = PLM (morphology) of the solid forms
# [7] = Approximate aqueous solubility of the solid forms (solvent addition method)
# Procedure: as §1
# Approximately 50 mg of each form (1, 2, 3 and 5) was weighed into a 2 ml vial. 20 μl aliquots of deionized water was added to each vial until complete dissolution of the solid was observed. The volume was noted down and the approximate water solubility calculated.
# [8] = Approximate solvent solubility screen (aliquot addition); conditions: for solubility: 40 °C, thermodynamic from solid
# Procedure: Approximately 10 mg of sialic acid was used to check the solubility in 31 different solvents or solvent mixtures.
# 50 μl aliquots of solvent were added in attempts to dissolve the sialic acid. The volume range used varied between 50 μl and 2 ml. Dissolution was aided by heating to 40° C. and shaking the vial between aliquots.
# The mixture of solvents Ethanol:Acetone:Ethyl acetate (85:12:3 wt %) will be referred to as “Ethynol” hereafter.
# [9] = 1 week under ambient conditions
# [10] = stability under ambient conditions
smiles,measurement,setting,value
"CC(=O)N[C@H]1[C@H]([C@H](O)[C@H](O)CO)OC(O)(C(=O)O)C[C@@H]1O (stereo partly shown) [An embodiment of Form 2, N-acetylneuraminic acid]",Physical form (XRPD) after stress,[1]; 1 week at 40° C./75% RH,converts to Form 1
same,Physical form (XRPD) after stress,[1]; 1 week at 80° C.,stable
same,Physical form (XRPD) after stress,[1]; [9],mixture of Forms 1 and 2
same,Hygroscopicity (GVS),[2],slightly hygroscopic
same,GVS weight loss on sorption,[2]; RH>50%,ca. 1.5%
same,Polymorphic form after GVS (XRPD),[2],transformed to Form 1
same,Chemical stability,[3],good
"CC(=O)N[C@H]1[C@H]([C@H](O)[C@H](O)CO)OC(O)(C(=O)O)C[C@@H]1O (stereo partly shown) [Form 2, N-acetylneuraminic acid]",TGA Decomposition temperature,[4],at 178.5 °C
same,Physical form (XRPD) after stress,[1]; 1 week at 40° C./75% RH,converts to Form 1
same,Physical form (XRPD) after stress,[1]; 1 week at 80° C.,stable
same,Physical form (XRPD) after stress,[1]; [9],stable
same,Stability - XRPD post Stability,[1]; at 80° C.,Form 2 at 80 °C
same,Stability - XRPD post Stability,[1]; at RT,Form 1 + 2 at RT
same,DVS (hygroscopicity),[2],Goes to form 1
same,Hygroscopicity (GVS),[2],slightly hygroscopic
same,XRPD post DVS,[2],change
same,Polymorphic form after GVS (XRPD),[2],converted to Form 1
same,"DVS, RH at which the form goes to form 1",[2]; relative humidity,RH >50%
same,DSC (thermal events) Endotherm,[5],181.0° ° C.
same,HPLC (purity),HPLC-UV chemical purity,99.70% and 99.80%
same,"PLM (morphology), particle size",[6],<30 μm
same,PLM (morphology),[6]; particle shape,Small needles
same,Chemical stability,[3],good chemical stability
same,Sialic acid Area % (HPLC),"[3]; after 1 week under 40° C., 75% RH",99.405% and 99.360%
same,Acetic acid Area % (HPLC),[3]; after 1 week under 80° C.,0.075% and 0.072%
same,Sodium Pyruvate Area % (HPLC),[3]; after 1 week under 80° C.,0.076% and 0.077%
same,Sialic acid Area % (HPLC),[3]; after 1 week under 80° C.,99.348% and 99.372%
same,Sialic acid Area % (HPLC),[3]; after 1 week under ambient conditions,99.561% and 99.605%
same,HPLC purity of recovered samples,"[3]; after 1 week, all three conditions (ambient; 40° C./75% RH; 80° C.)",higher than 99.4%
same,Area % Acetic acid (HPLC),"[3]; stability under 40° C., 75% RH",0.000%
same,Area % N-acetyl-D-glucosamine (HPLC),"[3]; stability under 40° C., 75% RH",0.000%
same,Area % N-acetyl-D-mannosamine (HPLC),"[3]; stability under 40° C., 75% RH",0.000%
same,Area % Sodium Pyruvate (HPLC),"[3]; stability under 40° C., 75% RH",0.000%
same,Area % Acetic acid (HPLC),[3]; stability under 80° C.,0.000%
same,Area % N-acetyl-D-glucosamine (HPLC),[3]; stability under 80° C.,0.000%
same,Area % N-acetyl-D-mannosamine (HPLC),[3]; stability under 80° C.,0.000%
same,Area % Sialic acid (HPLC),[3]; stability under 80° C.,99.601% and 99.566%
same,Area % Sodium Pyruvate (HPLC),[3]; stability under 80° C.,0.000% and 0.044%
same,Area % Acetic acid (HPLC),[3]; [10],0.000%
same,Area % N-acetyl-D-glucosamine (HPLC),[3]; [10],0.000%
same,Area % N-acetyl-D-mannosamine (HPLC),[3]; [10],0.000%
same,Area % Sodium Pyruvate (HPLC),[3]; [10],0.000%
same,Approximate solubility,[7]; aqueous,105000 µg/mL
same,"Aqueous Solubility, Solubility in g/L","[7]; deionized water, approximate, solvent addition",105 g/L
"CC(=O)N[C@H]1[C@H]([C@H](O)[C@H](O)CO)OC(O)(C(=O)O)C[C@@H]1O (stereo partly shown) [Sialic acid, N-acetylneuraminic acid]",solubility,"[8]; aqueous with cosolvent or surfactant or cyclodextrin, solvent: Water:Acetic Acid (80:20) v/v",> 213000 µg/mL
same,solubility,"[8]; organic solvent or mixture, solvent: 1,4-Dioxane",< 4900 µg/mL
same,solubility,"[8]; organic solvent or mixture, solvent: 1-Butanol",< 6100 µg/mL
same,solubility,"[8]; organic solvent or mixture, solvent: 2-Ethoxy ethanol",< 6800 µg/mL
same,solubility,"[8]; organic solvent or mixture, solvent: 2-Methyl THF",< 5200 µg/mL
same,solubility,"[8]; organic solvent or mixture, solvent: 2-propanol",< 5000 µg/mL
same,solubility,"[8]; organic solvent or mixture, solvent: Acetic acid",< 5400 µg/mL
same,solubility,"[8]; organic solvent or mixture, solvent: Acetone",< 5600 µg/mL
same,solubility,"[8]; organic solvent or mixture, solvent: Acetone:Ethanol (50:50) v/v",< 5100 µg/mL
same,solubility,"[8]; organic solvent or mixture, solvent: Acetone:Ethyl Acetate (50:50) v/v",< 4800 µg/mL
same,solubility,"[8]; organic solvent or mixture, solvent: Acetone:Water (90:10) v/v",< 5100 µg/mL
same,solubility,"[8]; organic solvent or mixture, solvent: Acetonitrile",< 4800 µg/mL
same,solubility,"[8]; organic solvent or mixture, solvent: Dichloromethane",< 5100 µg/mL
same,solubility,"[8]; organic solvent or mixture, solvent: Diisopropyl ether",< 4800 µg/mL
same,solubility,"[8]; organic solvent or mixture, solvent: Dimethylacetamide",> 72600 µg/mL
same,solubility,"[8]; organic solvent or mixture, solvent: Dimethylsulfoxide",> 301000 µg/mL
same,solubility,"[8]; organic solvent or mixture, solvent: Ethanol",< 5100 µg/mL
same,solubility,"[8]; organic solvent or mixture, solvent: Ethanol:Water (90:10) v/v",< 5200 µg/mL
same,solubility,"[8]; organic solvent or mixture, solvent: Ethyl acetate",< 5800 µg/mL
same,solubility,"[8]; organic solvent or mixture, solvent: Ethynol (Ethanol:Acetone:Ethyl acetate 85:12:3 wt %)",< 5300 µg/mL
same,solubility,"[8]; organic solvent or mixture, solvent: Isopropyl acetate",< 6500 µg/mL
same,solubility,"[8]; organic solvent or mixture, solvent: Methanol",< 5200 µg/mL
same,solubility,"[8]; organic solvent or mixture, solvent: Methylethyl ketone",< 5700 µg/mL
same,solubility,"[8]; organic solvent or mixture, solvent: Methylisobutyl ketone",< 6300 µg/mL
same,solubility,"[8]; organic solvent or mixture, solvent: N-Methyl-2-pyrrolidone",> 72100 µg/mL
same,solubility,"[8]; organic solvent or mixture, solvent: Nitromethane",< 6000 µg/mL
same,solubility,"[8]; organic solvent or mixture, solvent: Tetrahydrofuran",< 5300 µg/mL
same,solubility,"[8]; organic solvent or mixture, solvent: Toluene",< 5900 µg/mL
same,solubility,"[8]; organic solvent or mixture, solvent: n-Heptane",< 5300 µg/mL
same,solubility,"[8]; organic solvent or mixture, solvent: tert-Butylmethyl ether",< 4600 µg/mL
same,solubility,[8]; solvent: Water,> 212000 µg/mL
same,Visual Observation,"[8]; solvent: 1,4-Dioxane",Partial Solubility
same,Visual Observation,[8]; solvent: 1-Butanol,Partial Solubility
same,Visual Observation,[8]; solvent: 2-Ethoxy ethanol,Partial Solubility
same,Visual Observation,[8]; solvent: 2-Methyl THF,Partial Solubility
same,Visual Observation,[8]; solvent: 2-propanol,Partial Solubility
same,Visual Observation,[8]; solvent: Acetic acid,Partial Solubility
same,Visual Observation,[8]; solvent: Acetone,Low Solubility
same,Visual Observation,[8]; solvent: Acetone:Ethanol (50:50) v/v,Partial Solubility
same,Visual Observation,[8]; solvent: Acetone:Ethyl Acetate (50:50) v/v,Low Solubility
same,Visual Observation,[8]; solvent: Acetone:Water (90:10) v/v,Partial Solubility
same,Visual Observation,[8]; solvent: Acetonitrile,Low Solubility
same,Visual Observation,[8]; solvent: Dichloromethane,Partial Solubility
same,Visual Observation,[8]; solvent: Diisopropyl ether,Low Solubility
same,Visual Observation,[8]; solvent: Dimethylacetamide,Soluble
same,Visual Observation,[8]; solvent: Dimethylsulfoxide,Soluble
same,Visual Observation,[8]; solvent: Ethanol,Partial Solubility
same,Visual Observation,[8]; solvent: Ethanol:Water (90:10) v/v,Partial Solubility
same,Visual Observation,[8]; solvent: Ethyl acetate,Extremely low
same,Visual Observation,[8]; solvent: Ethynol (Ethanol:Acetone:Ethyl acetate 85:12:3 wt %),Partial Solubility
same,Visual Observation,[8]; solvent: Isopropyl acetate,Extremely low
same,Visual Observation,[8]; solvent: Methanol,Partial Solubility
same,Visual Observation,[8]; solvent: Methylethyl ketone,Partial Solubility
same,Visual Observation,[8]; solvent: Methylisobutyl ketone,Low Solubility
same,Visual Observation,[8]; solvent: N-Methyl-2-pyrrolidone,Soluble
same,Visual Observation,[8]; solvent: Nitromethane,Low Solubility
same,Visual Observation,[8]; solvent: Tetrahydrofuran,Low Solubility
same,Visual Observation,[8]; solvent: Toluene,Partial Solubility
same,Visual Observation,[8]; solvent: Water,Soluble
same,Visual Observation,[8]; solvent: Water:Acetic Acid (80:20) v/v,Soluble
same,Visual Observation,[8]; solvent: n-Heptane,Extremely low
same,Visual Observation,[8]; solvent: tert-Butylmethyl ether,Extremely low
